Measurements: ChEMBL document CHEMBL1128795, “N-(Quinuclidin-3-yl)-2-(1-methyl-1H-indol-3-yl)-2-oxo-acetamide: a high affinity 5-HT3 receptor partial agonist” (Bioorg Med Chem Lett, 1995)

Columns and labels:
Type in all cases: functional
Rattus norvegicus [1] = organism: Rattus norvegicus; test: Tested for effective concentration against 5-HT mediated depolarization of isolated rat vagus nerve
Rattus norvegicus [2] = organism: Rattus norvegicus; test: Tested for maximum response in depolarization of isolated rat vagus nerve measured at dose 10 uM
[3] = biological target: T1, Serotonin 3 (5-HT3) receptor (Rattus norvegicus) (UniProt P35563+Q9JJ16); test: Agonist activity against 2-methyl-5-HT induced bradycardia (von Bezold-Jarisch (B-J) reflex) in anesthetized rats
[4] = biological target: T1, Serotonin 3 (5-HT3) receptor (Rattus norvegicus); test: Tested for % decrease in heart rate relative to pre-dose control against 2-methyl-5-HT induced bradycardia (von Bezold-Jarisch (B-J) reflex) in anesthetized rats; parameters: scale not given: the % may be the effect or the level left

With `NCCc1c[nH]c2ccc(O)cc12` [SEROTONIN] the EC50 (Rattus norvegicus [1]) was 0.977 µM and the Max response (Rattus norvegicus [2]) was 340 uV.

Work on `Cc1[nH]c2ccc(O)cc2c1CCN` yielded an EC50 (Rattus norvegicus [1]) of 6.17 µM, an ED50 [3] of 7.7 µg/kg and a Max response (Rattus norvegicus [2]) of 363 uV. The Control [4] was 58%.
